Data taken from PubChem BioAssay AID1919006 (Molecular Pharmacology Branch, DTP, NCI, 2023).
pIC50: −log10 of the molar value.

Tested on: 885512-296-R-J2-PDC complex spheroid growth, % test/control
Assay: Anticancer human tumor 885512-296-R-J2-PDC patient-derived breast carcinoma cell line growth inhibition [AhR]
Details: for pIC50: curve of first compound; for viability, T/C: stronger effect = lower value
In short: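 Agents were dosed in half-log steps down from roughly clinical Cmax, or from 10 microM where Cmax was unknown, alone and with AhR antagonists. Read-out: percent test/control growth of tumor spheroids containing HUVEC and MSC stromal cells.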

[1] = second compound 0.1 µM, first compound 0.0316 µM
[2] = second compound 0.1 µM, first compound 0.1 µM
[3] = second compound 0.1 µM, first compound 0.316 µM
[4] = second compound 0.1 µM, first compound 1 µM
[5] = second compound 0.1 µM, first compound 3.16 µM
[6] = second compound 0.1 µM, first compound 10 µM
[7] = second compound 0.316 µM, first compound 0.0316 µM
[8] = second compound 0.316 µM, first compound 0.1 µM
[9] = second compound 0.316 µM, first compound 0.316 µM
[10] = second compound 0.316 µM, first compound 1 µM
[11] = second compound 0.316 µM, first compound 3.16 µM
[12] = second compound 0.316 µM, first compound 10 µM
[13] = second compound 1 µM, first compound 0.0316 µM
[14] = second compound 1 µM, first compound 0.1 µM
[15] = second compound 1 µM, first compound 0.316 µM
[16] = second compound 1 µM, first compound 1 µM
[17] = second compound 1 µM, first compound 3.16 µM
[18] = second compound 1 µM, first compound 10 µM
[19] = second compound 3.16 µM, first compound 0.0316 µM
[20] = second compound 3.16 µM, first compound 0.1 µM
[21] = second compound 3.16 µM, first compound 0.316 µM
[22] = second compound 3.16 µM, first compound 1 µM
[23] = second compound 3.16 µM, first compound 3.16 µM
[24] = second compound 3.16 µM, first compound 10 µM
[25] = second compound 10 µM, first compound 0.0316 µM
[26] = second compound 10 µM, first compound 0.1 µM
[27] = second compound 10 µM, first compound 0.316 µM
[28] = second compound 10 µM, first compound 1 µM
[29] = second compound 10 µM, first compound 3.16 µM
[30] = second compound 10 µM, first compound 10 µM
[31] = second compound 0.1 µM, first compound 0.00316 µM
[32] = second compound 0.1 µM, first compound 0.01 µM
[33] = second compound 0.316 µM, first compound 0.00316 µM
[34] = second compound 0.316 µM, first compound 0.01 µM
[35] = second compound 1 µM, first compound 0.00316 µM
[36] = second compound 1 µM, first compound 0.01 µM
[37] = second compound 3.16 µM, first compound 0.00316 µM
[38] = second compound 3.16 µM, first compound 0.01 µM
[39] = second compound 10 µM, first compound 0.00316 µM
[40] = second compound 10 µM, first compound 0.01 µM
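Also: spheroids exposed to compounds for seven days.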

SMILES	pIC50 (second compound 0.1 µM)	pIC50 (second compound 0.316 µM)	pIC50 (second compound 1 µM)	pIC50 (second compound 3.16 µM)	pIC50 (second compound 10 µM)	viability, T/C [1]	viability, T/C [2]	viability, T/C [3]	viability, T/C [4]	viability, T/C [7]	viability, T/C [8]	viability, T/C [9]	viability, T/C [10]	viability, T/C [13]	viability, T/C [14]	viability, T/C [15]	viability, T/C [19]	viability, T/C [20]	viability, T/C [25]	viability, T/C [26]	also measured
CC(C)c1c(-c2ccccc2)nc2c(C#N)c[nH]n2c1=O + CC(CO)NC(=O)c1cc(-c2ccc(Cl)cc2)nn(-c2cnn(C)c2)c1=O	< 5.00	< 5.00	< 5.00	< 5.00	< 5.00	110%	101%	97.6%	98%	105%	101%	104%	102%	105%	96.4%	107%	108%	104%	109%	91.2%	viability, T/C [5]: 98.2%; viability, T/C [6]: 85.5%; viability, T/C [11]: 93.3%; viability, T/C [12]: 91.7%; viability, T/C [16]: 91.7%; viability, T/C [17]: 99.1%; viability, T/C [18]: 89.2%; viability, T/C [21]: 99.5%; viability, T/C [22]: 111%; viability, T/C [23]: 105%; viability, T/C [24]: 89.7%; viability, T/C [27]: 86.9%; viability, T/C [28]: 102%; viability, T/C [29]: 97.2%; viability, T/C [30]: 77%
COc1ccc([C@@H](O)c2cc(-c3ncnc4cc(N5CCOCC5)ccc34)c(F)cc2Cl)nn1 + CC(CO)NC(=O)c1cc(-c2ccc(Cl)cc2)nn(-c2cnn(C)c2)c1=O	< 5.00	5.02	< 5.00	< 5.00	5.32	85.7%	97.2%	91.2%	90.7%	94.1%	92.1%	82.8%	86.3%	103%	112%	95.6%	89.6%	92.1%	88.1%	83.6%	viability, T/C [5]: 73.2%; viability, T/C [6]: 50.2%; viability, T/C [11]: 63.6%; viability, T/C [12]: 49.5%; viability, T/C [16]: 91.2%; viability, T/C [17]: 78%; viability, T/C [18]: 51.4%; viability, T/C [21]: 91.5%; viability, T/C [22]: 74.2%; viability, T/C [23]: 68.6%; viability, T/C [24]: 51.3%; viability, T/C [27]: 83.2%; viability, T/C [28]: 72.1%; viability, T/C [29]: 56.6%; viability, T/C [30]: 38.1%
CC[C@@]1(O)C(=O)OCc2c1cc1n(c2=O)Cc2cc3c(CN(C)C)c(O)ccc3nc2-1 + Cc1ccccc1N=Nc1ccc(NC(=O)c2ccnn2C)c(C)c1	8.30	8.26	8.30	8.34	8.68	8.84%	6.78%			8.71%	7.03%			8.48%	8.35%		9.81%	7.76%	9.21%	7.45%	viability, T/C (second compound 0.1 µM, first compound 0.000316 µM): 109%; viability, T/C (second compound 0.1 µM, first compound 0.001 µM): 103%; viability, T/C [31]: 67.5%; viability, T/C [32]: 23.7%; viability, T/C (second compound 0.316 µM, first compound 0.000316 µM): 113%; viability, T/C (second compound 0.316 µM, first compound 0.001 µM): 113%; viability, T/C [33]: 74.7%; viability, T/C [34]: 23%; viability, T/C (second compound 1 µM, first compound 0.000316 µM): 117%; viability, T/C (second compound 1 µM, first compound 0.001 µM): 111%; viability, T/C [35]: 70.7%; viability, T/C [36]: 18.9%; viability, T/C (second compound 3.16 µM, first compound 0.000316 µM): 107%; viability, T/C (second compound 3.16 µM, first compound 0.001 µM): 95.4%; viability, T/C [37]: 61.1%; viability, T/C [38]: 26.5%; viability, T/C (second compound 10 µM, first compound 0.000316 µM): 54.6%; viability, T/C (second compound 10 µM, first compound 0.001 µM): 57.7%; viability, T/C [39]: 46.3%; viability, T/C [40]: 21.4%
COc1cc(C2c3cc4c(cc3C(OC3OC5COC(C)OC5C(O)C3O)C3COC(=O)C23)OCO4)cc(OC)c1O (stereo not given) + Cc1ccccc1N=Nc1ccc(NC(=O)c2ccnn2C)c(C)c1	6.39	6.38	6.37	6.54	6.73	101%	115%	59.6%	19.2%	120%	107%	60.2%	17.9%	96.2%	102%	60.8%	81.4%	71.5%	57.4%	63.5%	viability, T/C [5]: 7.36%; viability, T/C [6]: 7.36%; viability, T/C [11]: 9.41%; viability, T/C [12]: 9.17%; viability, T/C [16]: 17.3%; viability, T/C [17]: 9.27%; viability, T/C [18]: 8.44%; viability, T/C [21]: 49.5%; viability, T/C [22]: 15.3%; viability, T/C [23]: 7.76%; viability, T/C [24]: 7.73%; viability, T/C [27]: 41.1%; viability, T/C [28]: 13.5%; viability, T/C [29]: 8.01%; viability, T/C [30]: 7.22%
COc1cccc2c1C(=O)c1c(O)c3c(c(O)c1C2=O)CC(O)(C(=O)CO)CC3OC1CC(N)C(O)C(C)O1 (stereo not given) + Cc1ccccc1N=Nc1ccc(NC(=O)c2ccnn2C)c(C)c1	> 7.50	> 7.50	> 7.50	> 7.50	> 7.50	15.3%	14.2%	2.62%	0.35%	16%	14.5%	3.8%	0.52%	16%	12.7%	2.55%	15.9%	13.5%	13.2%	10.1%	viability, T/C [5]: 1.6%; viability, T/C [6]: 1.27%; viability, T/C [11]: 1.44%; viability, T/C [12]: 1.34%; viability, T/C [16]: 0.36%; viability, T/C [17]: 1.75%; viability, T/C [18]: 1.27%; viability, T/C [21]: 2.36%; viability, T/C [22]: 0.36%; viability, T/C [23]: 1.22%; viability, T/C [24]: 0.78%; viability, T/C [27]: 1.82%; viability, T/C [28]: 0.82%; viability, T/C [29]: 1.07%; viability, T/C [30]: 1.04%
Nc1ncn(C2CC(O)C(CO)O2)c(=O)n1 (stereo not given) + Cc1ccccc1N=Nc1ccc(NC(=O)c2ccnn2C)c(C)c1	6.02	6.09	6.08	6.03	< 6.00	112%	106%	74.2%	48.9%	122%	111%	78.3%	43.9%	122%	106%	80%	112%	95.5%	62.8%	67%	viability, T/C [31]: 114%; viability, T/C [32]: 128%; viability, T/C [33]: 109%; viability, T/C [34]: 114%; viability, T/C [35]: 111%; viability, T/C [36]: 108%; viability, T/C [16]: 44.7%; viability, T/C [37]: 88.8%; viability, T/C [38]: 79.2%; viability, T/C [21]: 77.3%; viability, T/C [22]: 48.1%; viability, T/C [39]: 50.6%; viability, T/C [40]: 58.4%; viability, T/C [27]: 60.1%; viability, T/C [28]: 48.3%
